Measurements from publication PMC9243770, “Structural and Biophysical Characterization of Purified Recombinant Arabidopsis thaliana's Alternative Oxidase 1A (rAtAOX1A): Interaction With Inhibitor(s) and Activator” (Frontiers in Plant Science, 2022).
pKd: −log10 of the molar value.

Key:
[1] = molecular target: T1, Alternative oxidase 1A (rAtAOX1A) (Arabidopsis thaliana, UniProt Q39219); assay: SPR (Biacore, CM5 chip, […] Langmuir kinetic fit); also CD and inhibition of cell respiration; format: binding
T1 construct: gene AOX1A; mature protein, N-terminal His6-tag, expressed in E. coli BL21(DE3)
T1 sequence (Q39219 63-354): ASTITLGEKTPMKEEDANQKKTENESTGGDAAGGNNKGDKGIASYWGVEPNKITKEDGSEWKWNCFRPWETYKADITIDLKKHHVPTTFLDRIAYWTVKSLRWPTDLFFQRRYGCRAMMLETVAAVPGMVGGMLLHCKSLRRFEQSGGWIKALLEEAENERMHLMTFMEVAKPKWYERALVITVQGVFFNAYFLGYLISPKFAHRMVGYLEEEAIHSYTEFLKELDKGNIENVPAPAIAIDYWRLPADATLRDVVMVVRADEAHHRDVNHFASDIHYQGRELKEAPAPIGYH

[2] = molecular target: T1, Alternative oxidase 1A (rAtAOX1A); assay: oxygen uptake of purified enzyme with […] duroquinol (Clark-type electrode); format: biochemical

| oxygen uptake of purified enzyme with 600 μM duroquinol (Clark-type electrode) [2] | SMILES | pKd [1] |
| --- | --- | --- |
|  | CCCOC(=O)c1cc(O)c(O)c(O)c1 [n-PG, n-propyl gallate] | 9.31 |
| 3.86 μmol O2 min^−1 mg^−1 protein | Cc1c(C)c(O)c(C)c(C)c1O [DQH2, duroquinol] |  |
|  | O=C(NO)c1ccccc1O [SHAM, salicylhydroxamic acid] | 8.51 |
